Results on 43 sequences are retold here after patent US20230293630A1, “Coronavirus T Cell Epitopes and Uses Thereof” (priority 2020, published 2023).

In the assay the test system is SARS-CoV-2-specific CD4+ T cells (OX40+CD137+) in PBMC. The assay is classed as cell-based, human.
The mark [1] stands for this setting: CD4+ T cell epitopes identified by AIM assay, percent of tested donors responding.
Setting [2] is: CD4+ T cell epitopes identified by AIM assay, sum of response per responding donor.
Where [3] appears, read: CD4+ T cell epitopes identified by AIM assay, total response summed over donors.
Setting [4] is: CD4+ T cell epitopes identified by AIM assay, share of donors responding.
Setting [5] is: CD4+ T cell epitopes identified by AIM assay, total response.

Read-outs that look alike come from different tables or passages of the source.

Take LVYFLQSINFVRIIM [SEQ ID NO 251]: under setting [1], the “Frequency of response (%)” value is 7%. The “Magnitude by # of responding donors” value under setting [2] was 218. The same sequence had a Sum of response under setting [3] of 218.

In the case of GGDGKMKDLSPRWYF, the “Frequency of response (%)” value under setting [4] was 15%. Further, the “Magnitude by # of responding donors” value under setting [2] was 148. Under setting [5], the Sum of response was 295.

On to AYSNNSIAIPTNFTI, for which the “Frequency of response (%)” value under setting [1] stood at 8%. In addition, under setting [2], the “Magnitude by # of responding donors” value worked out at 112. Further, the Sum of response under setting [3] is reported as 112.

Turning to SLQSCTQHQPYVVDD, the “Frequency of response (%)” value under setting [4] is given as 9%. Also, under setting [2], the “Magnitude by # of responding donors” value worked out at 1222. In addition, the Sum of response under setting [5] was 1222.

In the case of EELKKLLEQWNLVIG, the “Frequency of response (%)” value under setting [4] stood at 13%. Also, the “Magnitude by # of responding donors” value under setting [2] is given as 223. Under setting [5], this sequence gave a Sum of response of 446.

As for FIYNKIVDEPEEHVQ, the “Frequency of response (%)” value under setting [4] is 14%. Also, under setting [2], the “Magnitude by # of responding donors” value is 243. The same sequence showed a Sum of response under setting [5] of 486.

Consider YIRVGARKSAPLIEL [SEQ ID NO 256], for which the “Frequency of response (%)” value under setting [1] is 18%. Besides, under setting [2], the “Magnitude by # of responding donors” value is 366. The sequence further registered a Sum of response under setting [3] of 731.

As for AGNGGDAALALLLLD, the “Frequency of response (%)” value is on record as 21%, the “Magnitude by # of responding donors” value came out at 416 and the Sum of response stood at 1249.

Regarding LLFNKVTLADAGFIK, the “Frequency of response (%)” value under setting [4] is on record as 8%. Moreover, under setting [2], the “Magnitude by # of responding donors” value amounted to 297. Moreover, the Sum of response under setting [5] was 297.

As for NFSQILPDPSKPSKR, the “Frequency of response (%)” value under setting [1] is reported as 33%. Also, under setting [2], the “Magnitude by # of responding donors” value is on record as 647. Also, the Sum of response under setting [3] stood at 2589.

For the sequence ELHLSWEVGKPRPPL, the “Frequency of response (%)” value under setting [4] stood at 8%. Further, under setting [2], the “Magnitude by # of responding donors” value came to 103. The sequence also had a Sum of response under setting [5] of 103.

Consider FKIYSKHTPINLVRD, for which the “Frequency of response (%)” value under setting [4] is recorded as 18%. The “Magnitude by # of responding donors” value under setting [2] is 484. Besides, the Sum of response under setting [5] is recorded as 967.

TQHQPYVVDDPCPIH: under setting [4], the “Frequency of response (%)” value is listed as 36%. In addition, under setting [2], the “Magnitude by # of responding donors” value was 338. In addition, the Sum of response under setting [5] worked out at 1352.

Consider TQAFGRRGPEQTQGN, for which the “Frequency of response (%)” value under setting [4] is recorded as 8%. Moreover, under setting [2], the “Magnitude by # of responding donors” value worked out at 151. The Sum of response under setting [5] came out at 151.

With FTINCQEPKLGSLVV, the “Frequency of response (%)” value was found to be 27%, the “Magnitude by # of responding donors” value came to 167 and the Sum of response was found to be 502.

Turning to TLRVEAFEYYHTTDP, under setting [4], the “Frequency of response (%)” value is reported as 18%. Also, the “Magnitude by # of responding donors” value under setting [2] is recorded as 318. In addition, the Sum of response under setting [5] came to 635.

On to NLLLQYGSFCTQLNR, for which the “Frequency of response (%)” value under setting [1] was 31%. Further, under setting [2], the “Magnitude by # of responding donors” value was determined as 1140. This sequence registered a Sum of response under setting [3] of 4560.

Turning to LLEQWNLVIGFLFLT, under setting [4], the “Frequency of response (%)” value is on record as 13%. Further, the “Magnitude by # of responding donors” value under setting [2] is 122. In addition, the Sum of response under setting [5] was determined as 243.

On to NLYDKLVSSFLEMKS, for which, under setting [4], the “Frequency of response (%)” value was found to be 8%. For the same sequence, the “Magnitude by # of responding donors” value under setting [2] is reported as 150. Further, under setting [5], the Sum of response was 150.

Consider LNQLTGYKKPASREL, for which, under setting [4], the “Frequency of response (%)” value came out at 8%. Besides, the “Magnitude by # of responding donors” value under setting [2] stood at 168. This sequence also had a Sum of response under setting [5] of 168.

As for CCHLAKALNDFSNSG, the “Frequency of response (%)” value under setting [4] stood at 8%. Besides, the “Magnitude by # of responding donors” value under setting [2] came to 111. This sequence gave a Sum of response under setting [5] of 111.

As for LEAPFLYLYALVYFL, under setting [4], the “Frequency of response (%)” value stood at 7%. Also, the “Magnitude by # of responding donors” value under setting [2] came to 272. Under setting [5], this sequence came in with a Sum of response of 272.

In the case of NKDGIIWVATEGALN, the “Frequency of response (%)” value under setting [4] is 29%. The “Magnitude by # of responding donors” value under setting [2] stood at 437. The Sum of response under setting [5] was 1747.

On to IGNYKLNTDHSSSSD, for which, under setting [4], the “Frequency of response (%)” value was 15%. Besides, the “Magnitude by # of responding donors” value under setting [2] is 134. This sequence displayed a Sum of response under setting [5] of 267.

In the case of FKDQVILLNKHIDAY, the “Frequency of response (%)” value under setting [4] turned out to be 33%. For the same sequence, the “Magnitude by # of responding donors” value under setting [2] was determined as 446. Under setting [5], this sequence displayed a Sum of response of 1785.

As for SIVAGGIVAIVVTCL, the “Frequency of response (%)” value under setting [4] was 9%. In addition, the “Magnitude by # of responding donors” value under setting [2] is recorded as 109. Also, the Sum of response under setting [5] is given as 109.

As for YRINWITGGIAIAMA, the “Frequency of response (%)” value under setting [4] is 58%. Under setting [2], the “Magnitude by # of responding donors” value is reported as 345. The sequence further displayed a Sum of response under setting [5] of 2417.

As to LTQYNRYLALYNKYK, under setting [4], the “Frequency of response (%)” value came to 8%. Besides, the “Magnitude by # of responding donors” value under setting [2] was determined as 638. Further, the Sum of response under setting [5] was determined as 638.

For TFGGPSDSTGSNQNG, the “Frequency of response (%)” value under setting [4] was determined as 6%. Also, the “Magnitude by # of responding donors” value under setting [2] amounted to 291. Moreover, the Sum of response under setting [5] came out at 291.

Take KEGQINDMILSLLSK: under setting [4], the “Frequency of response (%)” value is reported as 33%. The “Magnitude by # of responding donors” value under setting [2] worked out at 391. The sequence further registered a Sum of response under setting [5] of 391.

For ARKSAPLIELCVDEA, the “Frequency of response (%)” value under setting [4] came out at 18%. Also, under setting [2], the “Magnitude by # of responding donors” value stood at 329. Also, the Sum of response under setting [5] worked out at 658.

RCSFYEDFLEYHDVR: the “Frequency of response (%)” value was determined as 36%, the “Magnitude by # of responding donors” value is 174 and the Sum of response came to 696.

On to GMEVTPSGTWLTYTG, for which the “Frequency of response (%)” value under setting [4] was 8%. The “Magnitude by # of responding donors” value under setting [2] stood at 380. In addition, the Sum of response under setting [5] worked out at 380.

In the case of YLTFYLTNDVSFLAH, the “Frequency of response (%)” value under setting [4] amounted to 17%. Also, the “Magnitude by # of responding donors” value under setting [2] was 358. Besides, the Sum of response under setting [5] turned out to be 715.

Take LPFFSNVTWFHAIHV: under setting [4], the “Frequency of response (%)” value was determined as 9%. Besides, under setting [2], the “Magnitude by # of responding donors” value was 156. The sequence also displayed a Sum of response under setting [5] of 156.

Turning to AVITREVGFVVPGLP, under setting [4], the “Frequency of response (%)” value worked out at 9%. Also, the “Magnitude by # of responding donors” value under setting [2] was 682. The sequence also had a Sum of response under setting [5] of 682.

On to ADAVIKTLQPVSELL, for which, under setting [4], the “Frequency of response (%)” value is listed as 8%. The “Magnitude by # of responding donors” value under setting [2] was 436. The Sum of response under setting [5] is reported as 436.

Take NIDGYFKIYSKHTPI: under setting [4], the “Frequency of response (%)” value came to 45%. Under setting [2], the “Magnitude by # of responding donors” value is reported as 295. Under setting [5], this sequence came in with a Sum of response of 1475.

On to QMAYRFNGIGVTQNV, for which the “Frequency of response (%)” value under setting [4] came to 7%. Further, the “Magnitude by # of responding donors” value under setting [2] is 160. Besides, the Sum of response under setting [5] is given as 160.

As for EFVFKNIDGYFKIYS, the “Frequency of response (%)” value under setting [4] turned out to be 18%. Also, the “Magnitude by # of responding donors” value under setting [2] turned out to be 336. The Sum of response under setting [5] is on record as 672.

On to SGFAAYSRYRIGNYK, for which the “Frequency of response (%)” value was determined as 31%, the “Magnitude by # of responding donors” value turned out to be 185 and the Sum of response turned out to be 739.

In the case of TDYKHWPQIAQFAPS, the “Frequency of response (%)” value under setting [4] is 8%. The “Magnitude by # of responding donors” value under setting [2] was found to be 180. The Sum of response under setting [5] turned out to be 180.

On to LPDPSKPSKRSFIED, for which the “Frequency of response (%)” value under setting [4] was determined as 8%. In addition, the “Magnitude by # of responding donors” value under setting [2] worked out at 109. Under setting [5], this sequence had a Sum of response of 109.
